The record followed here is patent US20120028917A1, “Use Of N-(4-((3-(2-Amino-4-Pyrimidinyl)-2-Pyridinyl)Oxy)Phenyl)-4-(4-Methyl-2-Thienyl)-1-Phthalazinamine In The Treatment Of Antimitotic Agent Resistant Cancer” (Amgen Inc., priority 2009, published 2012).

For orientation: EC50 means the concentration at which the effect is half-maximal.

In one experiment the test system is Jurkat. As to the kind of experiment: Multiparameter cell cycle DNA content assay (flow cytometry). Type of experiment: cell-based. To be noted: Homo sapiens, T cell leukemia, 48 hours without compound withdrawal, read-out: EC50 (+4N DNA content endpoint). As for the experimental part:
(§1) Tumor cells were seeded in a 300 μL deep 96-well plate in 150 μL of appropriate complete media at a density of 100,000 cells/well. The cells were treated with AMG 900 (10-point dose range 0.156 to 0.0003 μM) with a final DMSO concentration of 0.2% in media. Two hours prior to harvest time, the cells were pulsed with BrdU at the final concentration of 1:100 in media. After 48 hours, 100 μL of media was removed from each well with a multi-well pipetter. Then the cells were transferred to PCR tube strips in 200 μL of media. The cells were centrifuged at 2000 rpm at 18° C. for 4 minutes and the supernatant was aspirated. The cells were then fixed in 200 μL of ice cold 90% methanol and stored at −20° C. for at least 24 hours before antibody and DNA staining. Fixed cells were centrifuged at 2000 rpm for 4 minutes to remove 90% methanol. Cells were washed with 200 μL of wash buffer and then treated with 100 μL acid buffer at room temperature for 1 hour in the dark. Cells were washed twice with 200 μL wash buffer (until pH was 7.0, confirmed with pH paper). Cells were incubated with an anti-BrdU-Alexa 647 (3 μg/mL) and anti-Caspase 3-FITC (20 μ/well) antibody cocktail in wash buffer for 2 hours at room temperature in the dark. Stained cells were centrifuged and washed with 200 μL of wash buffer. Cells were counterstained with 200 μL of propidium iodide (PI) overnight at 4° C. in the dark. Data was acquired and analyzed by flow cytometer (LSRII). A threshold gate was applied according to DNA content, BrdU, and Caspase-3 positive/negative populations based on DMSO control and low/high drug-treated groups. The data was represented as a percentage of SubG1 DNA content, 4N+ DNA content, BrdU, and Caspase-3 cleavage positive populations. The concentration-response curves and EC50 values were calculated using a 4-parameter equation.
(In general: Flow cytometry measures light scatter and fluorescence of single cells or particles in a stream.)

Another experiment relates to K562. The experiment is described as above. Conditions: Homo sapiens; K562, Chronic myeloid leukemia; 48 hours without compound withdrawal; read-out: EC50 (+4N DNA content endpoint). The class given is cell-based. As for the experimental part: as §1
A further experiment has as its system MOLT-4. The description is as above. Type of experiment: cell-based. To be noted: Homo sapiens; MOLT-4, T cell leukemia; 48 hours without compound withdrawal; read-out: EC50 (+4N DNA content endpoint). Here is the method:
as §1

Another experiment deals with U266-B1. Described as above. The class given is cell-based. To be noted: Homo sapiens; U266-B1, Multiple Myeloma; 48 hours without compound withdrawal; read-out: EC50 (+4N DNA content endpoint). Here is the method: as §1
A further experiment has as its system Colo 205 xenograft. Briefly: Xenograft tumor growth inhibition (Example 3). The class given is in vivo, athymic nude mice. To be noted: Colo 205, Colon; oral BID, best of intermittent or continuous dose schedule. Here is the method: (§2) To investigate whether AMG 900-induced suppression of aurora kinase activity inhibits cell proliferation, the antiproliferative efficacy of AMG 900 was evaluated in-vivo in multiple human cancer xenograft models, including breast, colon, leukemia, lung, pancreatic, and uterine cancer models, grown in athymic nude mice. Mice were administered AMG 900 orally at 3.75, 7.5, or 15 mg/kg BID for 2 consecutive days per week or 3 mg/kg BID everyday for the duration of the study beginning when tumors were established. The reagents, solutions, equipment, formulation of AMG 900, tumor volume measurements and calculations were generally as described in Example 4 below.

Another experiment deals with HCT 116 xenograft. As to the kind of experiment: Xenograft tumor growth inhibition (Example 3). Type of experiment: in vivo, athymic nude mice. To be noted: HCT 116, Colon; oral BID, best of intermittent or continuous dose schedule. As for the experimental part: as §2
A further experiment deals with HL60 xenograft. Briefly: Xenograft tumor growth inhibition (Example 3). The class given is in vivo, athymic nude mice. Conditions: HL60, Leukemia; oral BID, best of intermittent or continuous dose schedule. Here is the method: as §2
In the next experiment the test system is MDA-MB-231 xenograft. As to the kind of experiment: Xenograft tumor growth inhibition (Example 3). Type of experiment: in vivo, athymic nude mice. To be noted: MDA-MB-231, Breast; oral BID, best of intermittent or continuous dose schedule. As for the experimental part: as §2
The test system of another experiment is MES-SA xenograft. Briefly: Xenograft tumor growth inhibition (Example 3). Type of experiment: in vivo, athymic nude mice. To be noted: Uterine, oral BID, best of intermittent or continuous dose schedule. Here is the method: as §2
In the next experiment the test system is MiaPaCa2 xenograft. Briefly: Xenograft tumor growth inhibition (Example 3). Type of experiment: in vivo, athymic nude mice. To be noted: MiaPaCa2, Pancreas; oral BID, best of intermittent or continuous dose schedule. As for the experimental part:
as §2

In a further experiment the test system is NCI-H460 xenograft. Briefly: Xenograft tumor growth inhibition (Example 3). Type of experiment: in vivo, athymic nude mice. Conditions: NCI-H460, Lung; oral BID, best of intermittent or continuous dose schedule. Here is the method: as §2
For a further experiment, the system named is MES-SA Dx5 xenograft. Briefly: Xenograft tumor growth inhibition (Example 3). Type of experiment: in vivo, athymic nude mice. As for the experimental part: as §2
The effect of AMG 900 was tested on the multidrug resistant cell line MES-SA Dx5 grown in vivo as a tumor xenograft. Mice were administered AMG 900 orally at 15 mg/kg BID for 2 consecutive days per week or 3.0 mg/kg BID everyday for the duration of the study. Dosing was initiated when tumors were established (10 days after tumor implantation).
MES-SA Dx5, multi-drug resistant, cells (2×10^6) were injected subcutaneously in the right flank of female athymic nude mice. Tumors were measured twice per week. Treatment began on day 10 when the tumors were ˜100 mm^3. […] P-values correspond to statistical difference between groups treated with vehicle and AMG 900 determined by RMANOVA followed by Dunnett's post-hoc test. […]

Another experiment concerns RPMI8226. As to the kind of experiment: ≧4N DNA content assay (flow cytometry). The class given is cell-based, human. Conditions: Homo sapiens. Here is the method:
(§3) Tumor cells were treated with AMG 900, AZD1152, MK-0457, or PHA-739358 (range concentration varied based on potency) for 24 hours and processed for cell-cycle analysis (DNA staining only) as previously described (1). Cells were analyzed on a LSRII flow cytometer using BD FACS Diva software. The concentration-response curves and corresponding EC50 values were calculated using the percentage of cells with ≧4N DNA content versus the DMSO control.

For another experiment, the system named is U226-B1. Briefly: ≧4N DNA content assay (flow cytometry). Type of experiment: cell-based, human. Conditions: Homo sapiens; U226-B1, BCRP −; 24 hours. Here is the method:
as §3

Read-outs that look alike come from different tables or passages of the source.

In the case of `Cc1csc(-c2nnc(Nc3ccc(Oc4ncccc4-c4ccnc(N)n4)cc3)c3ccccc23)c1` [AMG 900, N-(4-((3-(2-amino-4-pyrimidinyl)-2-pyridinyl)oxy)phenyl)-4-(4-methyl-2-thienyl)-1-phthalazinamine], the EC50 with Jurkat turned out to be 1 nM; in the experiment with K562 it was 1 nM; in the experiment on MOLT-4 it was 2 nM; with U266-B1, 2 nM; in the experiment on RPMI8226 (RPMI-8226, RPMI8226, BCRP +, 24 hours, read-out: ≧4N DNA Content assay, EC50 value), 3 nM; in the experiment with RPMI8226 (RPMI-8226**, Multiple Myeloma, P-gp− and/or BCRP+, read-out: Cellular EC50), 3 nM. The same molecule displayed a concentration giving a half-maximal response (EC50) with U226-B1 of 2 nM. For the same molecule, the “% TGI (tumor growth inhibition)” value in the experiment with Colo 205 xenograft was found to be 58%; in the experiment on HCT 116 xenograft it was 83%; in the experiment on HL60 xenograft it was 68%; with MDA-MB-231 xenograft, 82%; in the experiment on MES-SA xenograft it was 86%; with MiaPaCa2 xenograft, 62%. Further, the “% TGI (tumor growth inhibition)” value in the experiment with NCI-H460 xenograft worked out at 85%; with MES-SA Dx5 xenograft (MES-SA Dx5, Uterine, oral BID, best of intermittent or continuous dose schedule) it was 73%. For the same molecule, in the experiment with MES-SA Dx5 xenograft (MES-SA Dx5, 15 mg/kg BID 2 consecutive days per week and 3.0 mg/kg BID everyday, p<0.0001), the “tumor growth vs vehicle control” value is given as “statistically significant tumor growth inhibition”.
